Reference: ChEMBL document CHEMBL1201862, “PubChem BioAssay data set” (2004)
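Five compound concentrations were applied to cells in 96-well plates for 48 hours; endpoints were derived by simple linear interpolation of the resulting dose-response curve. At the GI50, growth is halved.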 The source made the active and inactive calls. No stated cut-off is given here; in the data, active = GI50 up to about 1.1 µM and inactive = higher.

Experiments:
Experiment in all cases: NCI-60 cell line screen, 48 h
786-0 = test system: 786-0
A549 = test system: A549
ACHN = test system: ACHN
CAKI-1 = test system: CAKI-1
CCRF-CEM = test system: CCRF-CEM
COLO 205 = test system: COLO 205
DLD-1 = test system: DLD-1
DMS-114 = test system: DMS-114
EKVX = test system: EKVX
HCC 2998 = test system: HCC 2998
HCT-116 = test system: HCT-116
HCT-15 = test system: HCT-15
HL-60 = test system: HL-60
HOP-62 = test system: HOP-62
HOP-92 = test system: HOP-92
HT-29 = test system: HT-29
IGROV-1 = test system: IGROV-1
K562 = test system: K562
KM-20L2 = test system: KM-20L2
KM12 = test system: KM12
LOX IMVI = test system: LOX IMVI
LXFL 529 = test system: LXFL 529
M14 = test system: M14
M19-MEL = test system: M19-MEL
MOLT-4 = test system: MOLT-4
Malme-3M = test system: Malme-3M
NCI-H226 = test system: NCI-H226
NCI-H23 = test system: NCI-H23
NCI-H460 = test system: NCI-H460
NCI-H522 = test system: NCI-H522
OVCAR-3 = test system: OVCAR-3
OVCAR-4 = test system: OVCAR-4
OVCAR-5 = test system: OVCAR-5
OVCAR-8 = test system: OVCAR-8
RPMI-8226 = test system: RPMI-8226
SF-268 = test system: SF-268
SF-295 = test system: SF-295
SF-539 = test system: SF-539
SK-MEL-28 = test system: SK-MEL-28
SK-MEL-2 = test system: SK-MEL-2
SK-MEL-5 = test system: SK-MEL-5
SK-OV-3 = test system: SK-OV-3
SN12C = test system: SN12C
SNB-19 = test system: SNB-19
SNB-75 = test system: SNB-75
SNB-78 = test system: SNB-78
SW-620 = test system: SW-620
TK-10 = test system: TK-10
U-251 = test system: U-251
UACC-257 = test system: UACC-257
UACC-62 = test system: UACC-62
UO-31 = test system: UO-31
XF498 = test system: XF498
A498 = test system: A498
HOP-18 = test system: HOP-18
SR = test system: SR

In the case of `N=C1SCCS1`, the GI50 (786-0) is reported as > 100 µM (inactive), the GI50 (A549) is reported as > 100 µM (inactive) and the GI50 (ACHN) is reported as > 100 µM (inactive). The GI50 (CAKI-1) was > 100 µM (inactive), the GI50 (CCRF-CEM) was > 100 µM (inactive) and the GI50 (COLO 205) was > 100 µM (inactive). For the same molecule, the GI50 (DLD-1) was > 100 µM (inactive), the GI50 (DMS-114) was > 100 µM (inactive) and the GI50 (EKVX) was > 100 µM (inactive). For the same molecule, the GI50 (HCC 2998) was > 100 µM (inactive), the GI50 (HCT-116) was > 100 µM (inactive) and the GI50 (HCT-15) was greater than 100 µM. The GI50 (HL-60) was > 100 µM (inactive), the GI50 (HOP-62) was > 100 µM (inactive) and the GI50 (HOP-92) was 59 µM (inactive). The GI50 (HT-29) was > 100 µM (inactive), the GI50 (IGROV-1) was > 100 µM (inactive) and the GI50 (K562) was > 100 µM (inactive). For the same molecule, the GI50 (KM-20L2) was > 100 µM (inactive), the GI50 (KM12) was > 100 µM (inactive) and the GI50 (LOX IMVI) was > 100 µM (inactive). The GI50 (LXFL 529) was > 100 µM (inactive), the GI50 (M14) was > 100 µM (inactive) and the GI50 (M19-MEL) was > 100 µM (inactive). The GI50 (MOLT-4) was > 100 µM (inactive), the GI50 (Malme-3M) was > 100 µM (inactive) and the GI50 (NCI-H226) was > 100 µM (inactive). The GI50 (NCI-H23) was > 100 µM (inactive), the GI50 (NCI-H460) was > 100 µM (inactive) and the GI50 (NCI-H522) was > 100 µM (inactive). For the same molecule, the GI50 (OVCAR-3) was > 100 µM (inactive), the GI50 (OVCAR-4) was > 100 µM (inactive) and the GI50 (OVCAR-5) was > 100 µM (inactive). The GI50 (OVCAR-8) was > 100 µM (inactive), the GI50 (RPMI-8226) was > 100 µM (inactive) and the GI50 (SF-268) was > 100 µM (inactive). For the same molecule, the GI50 (SF-295) was > 100 µM (inactive), the GI50 (SF-539) was > 100 µM (inactive) and the GI50 (SK-MEL-28) was > 100 µM (inactive). The GI50 (SK-MEL-2) was > 100 µM (inactive), the GI50 (SK-MEL-5) was > 100 µM (inactive) and the GI50 (SK-OV-3) was > 100 µM (inactive). For the same molecule, the GI50 (SN12C) was > 100 µM (inactive), the GI50 (SNB-19) was > 100 µM (inactive) and the GI50 (SNB-75) was 36.2 µM (inactive). For the same molecule, the GI50 (SNB-78) was > 100 µM (inactive), the GI50 (SW-620) was > 100 µM (inactive) and the GI50 (TK-10) was > 100 µM (inactive). For the same molecule, the GI50 (U-251) was > 100 µM (inactive), the GI50 (UACC-257) was > 100 µM (inactive) and the GI50 (UACC-62) was > 100 µM (inactive). The GI50 (UO-31) was > 100 µM (inactive) and the GI50 (XF498) was > 100 µM (inactive).

In the case of `O=C(N/N=C(/c1nc2ccc([N+](=O)[O-])cc2[nH]c1=O)C(O)c1ccc([N+](=O)[O-])cc1)c1ccncc1` (stereo unspecified), the GI50 (786-0) is reported as > 100 µM (inactive), the GI50 (A498) is reported as > 100 µM (inactive) and the GI50 (A549) is reported as 69 µM (inactive). For the same molecule, the GI50 (ACHN) was 39.7 µM (inactive), the GI50 (CAKI-1) was 42 µM (inactive) and the GI50 (CCRF-CEM) was 16.3 µM (inactive). The GI50 (COLO 205) was > 100 µM (inactive), the GI50 (DLD-1) was > 100 µM (inactive) and the GI50 (DMS-114) was 13.4 µM (inactive). The GI50 (EKVX) was > 100 µM (inactive), the GI50 (HCC 2998) was 41.6 µM (inactive) and the GI50 (HCT-116) was > 100 µM (inactive). For the same molecule, the GI50 (HCT-15) was 23.1 µM, the GI50 (HL-60) was 26.4 µM (inactive) and the GI50 (HOP-18) was > 100 µM (inactive). The GI50 (HOP-62) was 69.7 µM (inactive), the GI50 (HOP-92) was > 100 µM (inactive) and the GI50 (HT-29) was > 100 µM (inactive). For the same molecule, the GI50 (IGROV-1) was > 100 µM (inactive), the GI50 (K562) was 23.1 µM (inactive) and the GI50 (KM12) was 59 µM (inactive). For the same molecule, the GI50 (LOX IMVI) was > 100 µM (inactive), the GI50 (LXFL 529) was 53.1 µM (inactive) and the GI50 (M14) was 45.9 µM (inactive). For the same molecule, the GI50 (M19-MEL) was > 100 µM (inactive), the GI50 (MOLT-4) was > 100 µM (inactive) and the GI50 (Malme-3M) was > 100 µM (inactive). The GI50 (NCI-H226) was > 100 µM (inactive), the GI50 (NCI-H23) was > 100 µM (inactive) and the GI50 (NCI-H460) was > 100 µM (inactive). For the same molecule, the GI50 (NCI-H522) was 6.64 µM (inactive), the GI50 (OVCAR-4) was > 100 µM (inactive) and the GI50 (OVCAR-5) was > 100 µM (inactive). The GI50 (OVCAR-8) was > 100 µM (inactive), the GI50 (RPMI-8226) was > 100 µM (inactive) and the GI50 (SF-268) was > 100 µM (inactive). The GI50 (SF-295) was > 100 µM (inactive), the GI50 (SF-539) was 75.5 µM (inactive) and the GI50 (SK-MEL-28) was > 100 µM (inactive). For the same molecule, the GI50 (SK-MEL-2) was > 100 µM (inactive), the GI50 (SK-MEL-5) was 36.3 µM (inactive) and the GI50 (SK-OV-3) was > 100 µM (inactive). The GI50 (SN12C) was > 100 µM (inactive), the GI50 (SNB-75) was > 100 µM (inactive) and the GI50 (SNB-78) was > 100 µM (inactive). For the same molecule, the GI50 (SR) was > 100 µM (inactive), the GI50 (SW-620) was > 100 µM (inactive) and the GI50 (TK-10) was > 100 µM (inactive). The GI50 (U-251) was > 100 µM (inactive), the GI50 (UACC-257) was > 100 µM (inactive) and the GI50 (UACC-62) was > 100 µM (inactive). The GI50 (UO-31) was > 100 µM (inactive) and the GI50 (XF498) was > 100 µM (inactive).
